The IC50 is the midpoint of a concentration-inhibition curve.

Assay [1] addresses SOS1 and KRAS G12D (Homo sapiens (Human), UniProt Q07889). The assay can be described thus: KRAS::SOS1 AlphaScreen Binding Assay. As to conditions: SOS1 (564-1049), KRAS G12D (1-169), GDP. From the text: a. KRAS::SOS1 AlphaScreen Binding Assay
Low IC50 values of given compounds are indicative of high potency of the SOS1 inhibitor compounds in this assay setting.
• GST-TEV-SOS1 (564-1049) and His-TEV-Avi-KRAS G12D (1-169) are purchased from Viva Biotech (Shanghai) Ltd. • GDP (Sigma, Cat. G7127) • AlphaLISA Glutathione Acceptor Beads (PerkinElmer, Cat. AL109C) • AlphaScreen Streptavidin Donor Beads (PerkinElmer, Cat. 6760002S) • Assay plates: ProxiPlate-384 Plus, White 384-shallow well Microplate (PerkinElmer, Cat. 6008280)
SOS1 inhibitor compounds are diluted to a final start concentration of […]. Serial dilutions of compounds are made using Tecan D300e Digital Dispenser in 9 concentrations with serial 1:3 dilutions. 100 nL of compound solution is transferred to the 384-well assay plate per well, covering a range between 1 μM and 0.15 nM minimum in duplicate. 10 nM (final assay concentration) KRAS G12D, 5 nM (final assay concentration) SOS1 and 10 μM (final assay concentration) GDP are mixed in assay buffer, and 5 μL of KRAS::SOS1 GDP mix is added into the assay plate to the 100 nL of compound solution (final dilution in the assay 1:100, final DMSO concentration 1%). After a 30 min incubation, AlphaLISA Glutathione Acceptor Beads and AlphaScreen Streptavidin Donor Beads are mixed in assay buffer at a concentration of 5 µg/mL (final assay concentration), and 5 μL of bead mix is added into the assay plate. Plates are kept at room temperature in a darkened incubator for 3 h. After a 3 h incubation, the signal is determined using Envision (PerkinElmer). The excitation wavelength is 680 nm, and emission 615 nm. IC50 values are calculated and analyzed using GraphPad Prism.

Assay [2] concerns NCI-H358. The assay can be described thus: Cell proliferation assay, 3D, CellTiter-Glo 3D. As to conditions: Homo sapiens, 72 h; NCI-H358 (KRAS G12C), 3D ultra-low attachment, 3 days; read-out: anit-prolif. H358 IC50. It counts as cell-based, human. As to the method: b. Cell Proliferation Assay
Low IC50 values are indicative of high potency of the compounds in this assay setting.
Cell proliferation assay is performed in three-dimensional (3D) ultra-low conditions with the human cell line NCI-H358, a human non-small cell lung cancer (NSCLC) cell line with a KRAS G12C mutation.
• 96-well Clear Round Bottom Ultra-Low Attachment Microplate (Corning, Cat. 7007) • 96-well Flat Clear Bottom White Polystyrene TC-treated Microplates (Corning, Cat. 3610) • RPMI-1640 Medium (Gibco, Cat. 22400105) • Fetal Bovine Serum (FBS) (Gibco, Cat. 10099141C) • 0.25% Trypsin-EDTA (Gibco, Cat. 25200056) • Penicillin-Streptomycin (Gibco, Cat. 15140122) • CellTiter-Glo 3D Cell Viability Assay (Promega, Cat. G9683)
NCI-H358 cells (ATCC, Cat. CRL-5807) are grown in cell culture flasks using RPMI medium supplemented with 10% FBS. Cells are incubated at 37° C. and 5% C02 in a humidified atmosphere, with sub-cultivation performed twice a week. Cells are trypsinized, counted and plated in 96-well ultra-low adhesion plates for 3D cell viability determination. The day after plating, serial dilutions of SOS1 inhibitor compounds are made using Tecan D300e Digital Dispenser to evaluate a concentration-dependent effect on cell viability. The concentration of the test compounds covers a range between 5 μM and 0.76 nM with serial 1:3 dilutions in 9 concentrations. 0.5 μL serial dilutions of the compounds are added in duplicates. 3 days later, the CellTiter-Glo 3D Cell Viability Assay is used to measure cell viability effects of SOS1 inhibitor compounds in 3D format. Luminescent intensity is determined using Envision (PerkinElmer). Data is analyzed and IC50 values are calculated using GraphPad Prism.
For orientation: In ATP-based viability assays light output follows the ATP content of the culture.

Chain of SOS1 and KRAS G12D (Q07889 564-1049, stated change not applied): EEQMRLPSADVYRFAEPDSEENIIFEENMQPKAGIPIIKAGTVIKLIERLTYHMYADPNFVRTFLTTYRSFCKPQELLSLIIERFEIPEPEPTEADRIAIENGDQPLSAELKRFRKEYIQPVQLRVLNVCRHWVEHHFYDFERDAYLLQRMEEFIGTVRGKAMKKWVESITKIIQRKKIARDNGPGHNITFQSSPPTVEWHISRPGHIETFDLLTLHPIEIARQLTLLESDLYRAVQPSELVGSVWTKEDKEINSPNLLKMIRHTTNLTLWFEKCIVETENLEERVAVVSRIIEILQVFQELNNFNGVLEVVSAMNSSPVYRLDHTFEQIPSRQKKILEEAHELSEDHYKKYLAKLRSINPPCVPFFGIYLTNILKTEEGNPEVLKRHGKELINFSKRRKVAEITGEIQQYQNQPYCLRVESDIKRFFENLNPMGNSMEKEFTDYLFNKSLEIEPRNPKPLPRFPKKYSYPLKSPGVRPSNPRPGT

In assay [1], `Cc1nc(NCc2cccc(C(F)(F)F)c2)c2cn(N3CCOCC3)c(=O)cc2n1` [Example 26] returned an IC50 of 15 to 150 nM.

`Cc1nc(N[C@H](C)c2cccc(C(F)F)c2F)c2cn(N3CCOCC3)c(=O)c(-c3ccccn3)c2n1` [Example 74, (R)-4-((1-(3-(difluoromethyl)-2-fluorophenyl)ethyl)amino)-2-methyl-6-morpholino-8-(pyridin-2-yl)pyrido[4,3-d]pyrimidin-7(6H)-one]: the IC50 in assay [1] is ≤ 15 nM; in assay [2] it was 100 to 500 nM.

As for `Cc1nc(N[C@H](C)c2cccc(C(F)(F)CO)c2)c2cn(N3CCOCC3)c(=O)cc2n1` [Example 18], the IC50 was ≤ 15 nM in assay [1] and 500 to 1000 nM in assay [2].

For `Cc1nc(N[C@H](C)c2cccc(C(F)F)c2F)c2cn(N3CCS(=O)(=O)CC3)c(=O)cc2n1` [Example 36], the figures for the 50% inhibitory concentration (IC50) in assay [1] and in assay [2] were ≤ 15 nM and 100 to 500 nM, respectively.

Regarding `Cc1nc(N[C@H](C)c2cccc(C(F)F)c2F)c2cn(N3CCN(c4ccc(C#N)cn4)CC3)c(=O)cc2n1` [Example 15, 6-[4-[4-[[(1R)-1-[3-(difluoromethyl)-2-fluoro-phenyl]ethyl]amino]-2-methyl-7-oxo-pyrido[4,3-d]pyrimidin-6-yl]piperazin-1-yl]pyridine-3-carbonitrile], the values for the half-maximal inhibitory concentration (IC50) in assay [1] and in assay [2] were 15 to 150 nM and ≤ 100 nM, respectively.

Regarding `Cc1nc(N[C@H](C)c2cccc(C(F)(F)F)c2F)c2cn(N3CCOCC3)c(=O)c(F)c2n1` [Example 31], the concentration for half-maximal inhibition (IC50) in assay [1] was ≤ 15 nM; in assay [2] it was ≤ 100 nM.

As for `COC(=O)c1ccc(-c2c(=O)n(N3CCOCC3)cc3c(N[C@H](C)c4cccc(C(F)F)c4F)nc(C)nc23)cn1` [Example 79], the IC50 in assay [1] was ≤ 15 nM.

Regarding `Cc1nc(N[C@H](C)c2cccc(C(F)F)c2F)c2cn(N3CCOCC3)c(=O)c(C3=CCOC3)c2n1` [Example 54], the half-maximal inhibitory concentration (IC50) in assay [1] is ≤ 15 nM; in assay [2] it was 100 to 500 nM.

As for `Cc1nc(N[C@H](C)c2cccc(C(F)F)c2F)c2cn(N3CCOCC3)c(=O)c(-c3cc(F)cc(C#N)c3)c2n1` [Example 64], the figures for the IC50 in assay [1] and in assay [2] were 15 to 150 nM and 500 to 1000 nM, respectively.

Consider `Cc1nc(N[C@H](C)c2cc(N)cc(C(F)(F)F)c2)c2cn(N3CCOCC3)c(=O)c(-c3ccc(C#N)nc3)c2n1` [Example 83], for which the concentration for half-maximal inhibition (IC50) in assay [1] was ≤ 15 nM.

In the case of `Cc1nc(N[C@H](C)c2cccc(C(F)F)c2F)c2cn(N3CCOCC3)c(=O)c(-c3ccc(N)nc3)c2n1` [Example 48], the IC50 in assay [1] is ≤ 15 nM; in assay [2], 100 to 500 nM.

Take `Cc1nc(N[C@H](C)c2cccc(C(F)F)c2F)c2cn(N3CCOC3=O)c(=O)cc2n1` [Example 39]: the values for the IC50 in assay [1] and in assay [2] were ≤ 15 nM and 100 to 500 nM, respectively.

With `Cc1nc(N[C@H](C)c2cccc(C(F)F)c2F)c2cn(N3CCNCC3)c(=O)cc2n1` [Example 10, 4-[[(1R)-1-[3-(difluoromethyl)-2-fluoro-phenyl]ethyl]amino]-2-methyl-6-piperazin-1-yl-pyrido[4,3-d]pyrimidin-7-one], the half-inhibitory concentration (IC50) is ≤ 15 nM in assay [1] and > 1000 nM in assay [2].

Take `Cc1nc(N[C@H](C)c2cccc(C(F)F)c2F)c2cn(N3CC4CC3CO4)c(=O)cc2n1` (some centres unmarked) [Example 8]: the half-maximal inhibitory concentration (IC50) in assay [1] was ≤ 15 nM; in assay [2] it was 100 to 500 nM.

As for `Cc1nc(N[C@H](C)c2cc(N)cc(C(F)(F)F)c2)c2cn(N3CCOCC3)c(=O)cc2n1` [Example 16, 4-[[(1R)-1-[3-amino-5-(trifluoromethyl)phenyl]ethyl]amino]-2-methyl-6-morpholino-pyrido[4,3-d]pyrimidin-7-one], the IC50 lay in the range of 15 to 150 nM in assay [1] and 100 to 500 nM in assay [2].

Regarding `Cc1nc(N[C@H](C)c2cccc(C(F)F)c2F)c2cn(N3CCOCC3)c(=O)c(-c3ccc(=O)[nH]c3)c2n1` [Example 49], the IC50 in assay [1] was ≤ 15 nM; in assay [2], 500 to 1000 nM.

With `COC1CCN(n2cc3c(N[C@H](C)c4cccc(C(F)F)c4F)nc(C)nc3cc2=O)CC1` [Example 7], the IC50 in assay [1] is ≤ 15 nM; in assay [2], 100 to 500 nM.

For `Cc1nc(N[C@H](C)c2cccc(C(F)F)c2F)c2cn(N3CCOCC3)c(=O)c(Br)c2n1` [Example 40, 8-bromo-4-[[(1R)-1-[3-(difluoromethyl)-2-fluoro-phenyl]ethyl]amino]-2-methyl-6-morpholino-pyrido[4,3-d]pyrimidin-7-one], the 50% inhibitory concentration (IC50) in assay [1] was ≤ 15 nM; in assay [2], ≤ 100 nM.

For the compound `Cc1nc(N[C@H](C)c2cccc(C(F)F)c2F)c2cn(N3CCOCC3)c(=O)c(-c3ccc(C#N)cc3)c2n1` [Example 57], the figures for the 50% inhibitory concentration (IC50) in assay [1] and in assay [2] were ≤ 15 nM and ≤ 100 nM, respectively.

As for `Cc1nc(N[C@H](C)c2cccc(C(F)F)c2F)c2cn(N3CCOCC3)c(=O)c(-c3cncnc3)c2n1` [Example 52], the results for the IC50 in assay [1] and in assay [2] were ≤ 15 nM and ≤ 100 nM, respectively.

Turning to `Cc1nc(N[C@H](C)c2cccc(C(F)F)c2F)c2cn(N3CCOCC3)c(=O)c(-c3cnc(C#N)c(F)c3)c2n1` [Example 67], the IC50 in assay [1] was 15 to 150 nM; in assay [2] it was ≤ 100 nM.

Consider `Cc1nc(N[C@H](C)c2cccc(C(F)F)c2F)c2cn(N3CCN(C(=O)CC#N)CC3)c(=O)cc2n1` [Example 14], for which the IC50 in assay [1] is ≤ 15 nM; in assay [2], 500 to 1000 nM.

Turning to `Cc1nc(N[C@H](C)c2cccc(C(F)F)c2F)c2cn(N3CCOCC3)c(=O)c(-c3ccccc3)c2n1` [Example 47], the half-maximal inhibitory concentration (IC50) was ≤ 15 nM in assay [1] and 100 to 500 nM in assay [2].

Consider `Cc1nc(N[C@H](C)c2cccc(C(F)(F)F)c2)c2cn(N3CCOCC3)c(=O)c(F)c2n1` [Example 33], for which the IC50 is ≤ 15 nM in assay [1] and 100 to 500 nM in assay [2].

In the case of `Cc1nc(N[C@H](C)c2cccc(C(F)F)c2F)c2cn(N3CCOCC3)c(=O)c(-c3cn(CC(F)F)cn3)c2n1` [Example 69], the IC50 was ≤ 15 nM in assay [1] and ≤ 100 nM in assay [2].

On to `Cc1nc(N[C@H](C)c2cccc(C(F)F)c2F)c2cn(N3C[C@@H](C)O[C@@H](C)C3)c(=O)cc2n1` [Example 5], for which the IC50 in assay [1] is ≤ 15 nM; in assay [2], 100 to 500 nM.

With `Cc1nc(N[C@H](C)c2cccc(C(F)F)c2F)c2cn(N3CCOCC3)c(=O)c(-c3ccc(C(N)=O)nc3)c2n1` [Example 80], the IC50 in assay [1] was ≤ 15 nM.

The compound `Cc1nc(N[C@H](C)c2cccc(C(F)F)c2F)c2cn(-n3cnnc3)c(=O)c(F)c2n1` [Example 87] returned an IC50 in assay [1] of 150 to 1000 nM.

For the compound `Cc1nc(N[C@H](C)c2cccc(C(F)(F)CO)c2)c2cn(N3CCOCC3)c(=O)c(-c3ccc(C#N)nc3)c2n1` [Example 82], in assay [1], the IC50 was ≤ 15 nM.

Take `Cc1nc(NC(C)c2cc(C(F)F)cc(C(F)F)c2)c2cn(N3CCOCC3)c(=O)cc2n1` (centres unmarked) [Example 28]: the IC50 in assay [1] was 150 to 1000 nM.

Take `Cc1nc(N[C@H](C)c2cccc(C(F)F)c2F)c2cn(N3CCOCC3)c(=O)c(C3=CCS(=O)(=O)CC3)c2n1` [Example 85]: the 50% inhibitory concentration (IC50) in assay [1] was ≤ 15 nM.

Take `Cc1nc(N[C@H](C)c2cccc(C(F)F)c2F)c2cn(N3CCOCC3)c(=O)c(-c3cnc4nccn4c3)c2n1` [Example 84]: the IC50 in assay [1] was ≤ 15 nM.

Consider `Cc1nc(N[C@H](C)c2cccc(C(F)F)c2F)c2cn(N3CCOCC3)c(=O)c(-c3ccn[nH]3)c2n1` [Example 81], for which the IC50 in assay [1] was ≤ 15 nM.

In the case of `Cc1nc(N[C@H](C)c2cccc(C(F)F)c2F)c2cn(N3CCOCC3)c(=O)c(-c3ccc(C(=O)O)nc3)c2n1` [Example 78], the IC50 in assay [1] is ≤ 15 nM.

As to `Cc1nc(NCc2ccc3cc[nH]c3c2)c2cn(N3CCOCC3)c(=O)cc2n1` [Example 27], in assay [1], the half-maximal inhibitory concentration (IC50) is > 1000 nM.

Regarding `Cc1nc(NC(C)C2CC2)c2cn(N3CCOCC3)c(=O)cc2n1` (centres unmarked) [Example 23], the IC50 in assay [1] is > 1000 nM.

(Values after patent US20240051956A1, “SOS1 INHIBITORS AND USES THEREOF” (QILU REGOR THERAPEUTICS INC., priority 2020, published 2024).)
